The results in this text go back to PubChem BioAssay (NCI).

Some test systems named below: SNB-78 CNS; KM20L2 colon; SF-268 CNS; HOP-92 NSCLC; DLD-1 colon; M19-MEL melanoma; SK-OV-3 ovarian; SF-295 CNS; RXF 393 renal; DMS 114 small cell lung; SR leukemia.
Common to all, as to test: NCI anticancer screen, dose series, 48 h

Where “and” joins values, the source holds several entries; their conditions need not be identical. Equal values may be shown once.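 Five concentrations, 48 hours, 96-well plates. GI50 is the concentration that inhibits growth by half. TGI: concentration producing complete growth inhibition.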 Where only a bound is given, the exact number is not on record here.

With `O=C(O)/C(=C/C=C/c1ccccc1)c1csc(-c2nc(/C(=C\C=C\c3ccccc3)C(=O)O)cs2)n1`, the TGI with SNB-78 CNS is 79.8 µM; with KM20L2 colon it was above 100 µM; in the experiment with SF-268 CNS, above 100 µM; with HOP-92 NSCLC, 59.9 µM; with DLD-1 colon, 57.7 µM; in the experiment on M19-MEL melanoma, above 100 µM. Further, the TGI was above 100 µM with SK-OV-3 ovarian, 87.6 µM in the experiment with SF-295 CNS, 82.4 µM in the experiment with RXF 393 renal and 72 µM with DMS 114 small cell lung.

Consider `N#CSCC1CC(O)(c2ccccc2)CC(c2ccc(F)cc2)O1` (configuration not stated), for which the GI50 with SR leukemia was 0.572 µM; in the experiment on SF-268 CNS, 1.65 µM; in the experiment with HOP-92 NSCLC, 1.93 µM; in the experiment on SK-OV-3 ovarian, 4.67 µM; with SF-295 CNS it was 1.64 µM; in the experiment with RXF 393 renal, 1.72 µM. Further, the TGI with SR leukemia stood at 3.19 µM; with SF-268 CNS, 3.3 µM; with HOP-92 NSCLC, 6.05 µM; with SK-OV-3 ovarian, 15.7 µM; with SF-295 CNS, 3.34 µM; in the experiment with RXF 393 renal it was 3.47 µM.

With `NC(=O)c1cc(-c2ccc(F)cc2)cc(-c2ccncc2)c1N`, the GI50 was above 25 µM in the experiment with SR leukemia; above 25 µM in the experiment with SF-268 CNS; 23 µM in the experiment on HOP-92 NSCLC; above 25 µM in the experiment on SK-OV-3 ovarian; above 21.7 µM in the experiment with SF-295 CNS; above 18.6 µM in the experiment with RXF 393 renal. Moreover, the TGI in the experiment on SR leukemia, in the experiment on SF-268 CNS, with HOP-92 NSCLC, in the experiment on SK-OV-3 ovarian, with SF-295 CNS and in the experiment with RXF 393 renal was above 25 µM throughout.

As for `COc1cc(/C=C/C(=O)c2ccc(NC(=O)CN3CCN(c4cc5c(cc4F)c(=O)c(C(=O)O)cn5C4CC4)CC3)cc2)cc(OC)c1OC`, the GI50 was 0.245 µM in the experiment with SR leukemia; 1.09 µM in the experiment on SF-268 CNS; 1.79 µM in the experiment with HOP-92 NSCLC; 2.58 µM with SK-OV-3 ovarian; 0.98 µM in the experiment on SF-295 CNS; 0.273 µM in the experiment with RXF 393 renal. Moreover, the TGI was above 100 µM in the experiment with SR leukemia; 20.4 µM in the experiment on SF-268 CNS; 7.58 µM in the experiment with HOP-92 NSCLC; above 29.8 µM in the experiment with SK-OV-3 ovarian; 3.69 µM in the experiment with SF-295 CNS; 0.803 µM with RXF 393 renal.

In the case of `NC(=O)c1ccc2nc(-c3ccc(Oc4ccc(Cl)cc4)cc3)[nH]c2c1`, the GI50 with SR leukemia was 17.9 µM and 20.6 µM; with SF-268 CNS, 36.7 µM and 19.2 µM; with HOP-92 NSCLC, above 75 µM; with SK-OV-3 ovarian, 17.7 µM and 23.1 µM; in the experiment on SF-295 CNS, above 75 µM; in the experiment on RXF 393 renal, 48.9 µM and 14.9 µM. For the same compound, the TGI in the experiment with SR leukemia is 61.5 µM and 57.3 µM; in the experiment on SF-268 CNS it was 75 µM and 46.2 µM; in the experiment on HOP-92 NSCLC, above 75 µM; in the experiment on SK-OV-3 ovarian, 75 µM and 48.2 µM; with SF-295 CNS, above 75 µM; with RXF 393 renal, 75 µM and 30.2 µM.

In the case of `Nc1nc(-c2ccc(F)cc2)c(-c2ccc3ncccc3n2)s1`, the GI50 with SR leukemia was above 25 µM; in the experiment with SF-268 CNS it was 16.5 µM; with HOP-92 NSCLC it was 0.268 µM; in the experiment on SK-OV-3 ovarian, 6.82 µM; in the experiment on SF-295 CNS, above 21 µM; with RXF 393 renal, 12.3 µM. In addition, the TGI in the experiment with SR leukemia is above 25 µM; with SF-268 CNS, above 25 µM; in the experiment on HOP-92 NSCLC, 24.6 µM; in the experiment on SK-OV-3 ovarian, above 25 µM; with SF-295 CNS it was above 25 µM; in the experiment on RXF 393 renal it was above 25 µM.

As to `COCCCNC(=O)CC(=O)NCCCOC`, the TGI in the experiment on SNB-78 CNS, in the experiment on KM20L2 colon, in the experiment with SR leukemia, with SF-268 CNS, in the experiment on HOP-92 NSCLC and with DLD-1 colon was above 100 µM throughout. Besides, the TGI in the experiment with M19-MEL melanoma, in the experiment on SF-295 CNS, with RXF 393 renal and in the experiment on DMS 114 small cell lung was above 100 µM throughout.

On to `CCCCCCCCCCCCCP(=O)(O)OCC`, for which the TGI in the experiment with SNB-78 CNS, in the experiment with KM20L2 colon, in the experiment on SF-268 CNS, in the experiment with HOP-92 NSCLC, with DLD-1 colon and in the experiment on M19-MEL melanoma was above 100 µM each time. The TGI in the experiment with SF-295 CNS, in the experiment with RXF 393 renal and in the experiment with DMS 114 small cell lung was above 100 µM in each case.

As for `Cc1occc1C(=S)Nc1ccc(Cl)c(C(=O)OC(C)C2CC2)c1` (configuration not stated), the TGI with SR leukemia is 68.2 µM; in the experiment with SF-268 CNS, 59.3 µM; in the experiment with HOP-92 NSCLC it was 51.5 µM; with SK-OV-3 ovarian it was 50.5 µM; with SF-295 CNS, 39 µM; in the experiment on RXF 393 renal, 39.4 µM.

On to `CCN(C(=O)c1cc(F)ccc1Oc1cncnc1N1CC2(CCN(CC3CCC(NS(=O)(=O)CC)CC3)CC2)C1)C(C)C` (configuration not stated), for which the GI50 in the experiment with SR leukemia, in the experiment with SF-268 CNS, in the experiment on HOP-92 NSCLC, with SK-OV-3 ovarian, in the experiment on SF-295 CNS and in the experiment on RXF 393 renal was above 100 µM each time. Further, the TGI in the experiment with SR leukemia, in the experiment on SF-268 CNS, in the experiment on HOP-92 NSCLC, in the experiment with SK-OV-3 ovarian, in the experiment on SF-295 CNS and in the experiment on RXF 393 renal was above 100 µM in each case.
